From patent publication US9540370B2, “Heterocyclic compounds and their use as glycogen synthase kinase-3 inhibitors” (ABBVIE DEUTSCHLAND GMBH & CO. KG, priority 2010, dated 2017) come the findings set out here.

Structures are written as SMILES. pIC50: −log10 of the molar value. A value given as a limit tells only on which side of the number the result lay.

T1 sequence (P49841 whole entry): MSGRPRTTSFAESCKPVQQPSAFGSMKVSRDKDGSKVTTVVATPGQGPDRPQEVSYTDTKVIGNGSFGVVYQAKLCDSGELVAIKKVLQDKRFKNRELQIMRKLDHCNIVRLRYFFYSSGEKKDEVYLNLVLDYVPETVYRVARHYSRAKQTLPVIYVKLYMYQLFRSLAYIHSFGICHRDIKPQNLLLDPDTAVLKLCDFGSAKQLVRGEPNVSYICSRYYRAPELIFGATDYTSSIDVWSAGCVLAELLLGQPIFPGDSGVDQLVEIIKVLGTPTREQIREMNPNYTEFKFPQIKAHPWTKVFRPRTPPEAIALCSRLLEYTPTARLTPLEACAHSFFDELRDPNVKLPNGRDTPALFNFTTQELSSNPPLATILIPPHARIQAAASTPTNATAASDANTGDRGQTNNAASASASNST

This experiment has as its target T1, human Glycogen Synthase Kinase-3 beta (hGSK-3β) (Homo sapiens, UniProt P49841).
T1 construct: purchased Upstate cell signaling solutions
As to the kind of experiment: Biochemical hGSK-3Beta assay (33P incorporation into biotinylated peptide substrate). The following applies: 10 μM ATP, 30 minutes at room temperature; read-out: GSK-3β IC50. On the procedure:
Methods—Biochemical hGSK-3Beta Assay
Compounds were tested for their ability to inhibit human Glycogen Synthase Kinase-3 beta (hGSK-3β) to phosphorylate biotin-[…](pS)EDEEE. Compounds were incubated with 0.5 μCi 33P-ATP, 10 μM ATP, 0.0125 U hGSK-3β (Upstate cell signaling solutions) and 1 μM substrate (biotin-[…](pS)EDEEE) in 50 mM HEPES, 10 mM MgCl2, […], 1 mM DTT, 0.0075% Triton, 2% DMSO (total volume 50 μL) for 30 minutes at room temperature. The incubation was stopped by addition of an equal volume of 100 mM EDTA, 4M NaCl. 80 μL of this mixture was added to streptavidin-coated Flash -plates (Perkin Elmer). Following a wash step, 33P incorporation was quantified on a MicroBeta microplate liquid scintillation counter (PerkinElmer). IC50s were determined by fitting a sigmoidal dose-response curve to the counts obtained at the different concentrations in GraphPad Prism.
Turning to `O=C(Nc1cccc(C2=CCOCC2)n1)Nc1ccnc2c(F)cccc12` [Example 1, 1-(6-(3,6-Dihydro-2H-pyran-4-yl)pyridin-2-yl)-3-(8-fluoroquinolin-4-yl)urea], the pIC50 is > 7.00.

As for `O=C(Nc1cccc(C2CCOCC2)n1)Nc1ccnc2c(F)cccc12` [Example 2, 1-(8-Fluoroquinolin-4-yl)-3-(6-(tetrahydro-2H-pyran-4-yl)pyridin-2-yl)urea], the pIC50 is > 7.00.

Take `O=C(Nc1cccc(C2=COCCC2)n1)Nc1ccnc2c(F)cccc12` [Example 3, 1-(6-(3,4-Dihydro-2H-pyran-5-yl)pyridin-2-yl)-3-(8-fluoroquinolin-4-yl)urea]: the pIC50 was > 7.00.

As to `O=C(Nc1cccc(C(F)(F)F)n1)Nc1ccnc2ccc(Br)cc12` [Example 16, 1-(6-Bromo-quinolin-4-yl)-3-(6-trifluoromethyl-pyridin-2-yl)-urea], the pIC50 was > 7.00.

With `O=C(Nc1cccc(C(F)(F)F)n1)Nc1ccnc2ccccc12` [Example 17, 1-(6-(Trifluoromethyl)pyridin-2-yl)-3-quinolin-4-yl-urea], the pIC50 was > 7.00.

As for `O=C(Nc1cccc(C(F)(F)F)n1)Nc1ccnc2c(F)cc(F)cc12` [Example 18, 1-(6,8-Difluoroquinolin-4-yl)-3-(6-trifluoromethyl-pyridin-2-yl)-urea], the pIC50 is > 7.00.

Take `O=C(Nc1cccc(C(F)(F)F)n1)Nc1ccnc2cc(Br)ccc12` [Example 19, 1-(7-Bromoquinolin-4-yl)-3-(6-trifluoromethyl-pyridin-2-yl)-urea]: the pIC50 is > 7.00.

`COc1ccc2c(NC(=O)Nc3cccc(C(F)(F)F)n3)ccnc2c1` [Example 21, 1-(7-Methoxyquinolin-4-yl)-3-(6-trifluoromethyl-pyridin-2-yl)-urea]: the pIC50 is > 7.00.

On to `N#Cc1cccc2c(NC(=O)Nc3cccc(C(F)(F)F)n3)ccnc12` [Example 23], for which the pIC50 is > 7.00.

As to `O=C(Nc1cccc(C(F)(F)F)n1)Nc1ccnc2c(I)cccc12` [Example 24, 1-(8-Iodoquinolin-4-yl)-3-(6-trifluoromethyl-pyridin-2-yl)-urea], the pIC50 is > 7.00.

One may read the pIC50 as the negative decadic logarithm of the IC50, by convention in mol/L.
